In patent publication US20150031128A1, “CULTURE MEDIUM FOR EUKARYOTIC CELLS” (Friesland Brands B.V., priority 2012, published 2015):
Peptide text beside a SMILES is read from it.

Tests used:
[1] = system: IgG expressing CHO cell line (CHO-2: ATCC CRL 11397, producing IgG4); test: Specific IgG production of IgG expressing CHO cells in supplemented chemically defined medium (sandwich ELISA / AUC); assay type: cell-based, Chinese hamster; settings: ratio of cumulative IgG production (mg/ml) and AUC at day 11
Protocol: (§1) The cell culture assay was carried out in commercially available IS CHO-CD medium (Irvine Scientific, Cat. No. 91119). To this media, L-Glutamine (2 mM), pluronic acid, hypoxanthine (100 μM) and thymidine (15 μM) were added. Penicillin and streptomycin were added to prevent any bacterial growth during the growth assay. The media was supplemented with sodium-L-lactate, methyl-L-3-phenyl lactate, mucic acid, D-chiro-inositol, ferulic acid, syringic acid, adenine (A2786) and trigonelline, all purchased from Sigma Aldrich, Germany, in varying concentrations (see Table 2). The supplemented medium was mixed with a vortex mixture, filtered using a 0.22 μm filter and subsequently used in a growth assay.
(§2) An IgG expressing CHO cell line was used (CHO-2: ATCC CRL 11397, producing IgG4). The cell lines were grown in the adherent conditions for a few passages and once confluent, they were transferred to animal-free conditions in the supplemented media described in Example 2.
(§3) To measure growth and production curves, Chinese hamster ovary (CHO) cells were grown in suspension culture in baffled flasks. 20×10^6 cells were transferred in 25 ml media to the baffled flasks. Chemically defined media with and without added cell culture medium components were tested. No fresh media was added during the growth assay. Cells were counted using the CEDEX HiRes cell counter (Innovatis, Germany). The cell counts were used to calculate the area under the growth curve and represented as dimensionless area under curve (AUC) values as described in detail in Ling, C. X, Huang, J. and Zhang, H. (2003), International joint conferences on artificial intelligence, pp. 329-341. The supernatant samples were taken every alternate days for the IgG production measurements. IgG production was measured using sandwich ELISA method. The specific IgG production was calculated by taking the ratio of cumulative IgG production (in mg/ml) and AUC measured at day 11 of the growth assay. The cells were visually inspected using a phase contrast microscope (Zeiss Axiovert 25, 400× magnification). […] Only single cells were observed and no aggregation of cells was seen. The cell shape was also positively affected. […] This was in contrast with the observation that a lot of cell aggregates were present in CHO cell cultures grown in chemically defined medium without cell culture medium components.
(§4) Table 2A and 2B. Specific IgG production and cell growth of CHO cells in chemically defined cell culture medium (see Example 5 for details) with added cell culture medium components of the invention in varying concentrations. Production and growth data in chemically defined cell culture medium without added alpha-hydroxy acid derivatives, as well as in chemically defined cell culture medium supplemented with soy protein hydrolysate (0.4% w/v) and with fetal calf serum (Gibco-Invitrogen; 5% v/v) are provided for comparison.

[2] = system: IgG expressing CHO cell line (CHO-2: ATCC CRL 11397, producing IgG4); test: Cell growth (area under growth curve) of CHO cells in supplemented chemically defined medium; assay type: cell-based, Chinese hamster; settings: dimensionless AUC
Protocol: as §1, §2, §3, §4

[3] = system: antibody production in cell culture; test: Correlation (linear regression, SLOPE) of antibody production with relative concentration of components in plant protein hydrolysates; assay type: cell-based; settings: linear regression over plant protein hydrolysates; higher positive slope = higher importance
Protocol: Commercial plant protein hydrolysates like SE50MAF-UF, WGE80M-UF, CNE80M-UF, PCE80B obtained from FrieslandCampina Domo, USA were analysed by Liquid chromatography/Mass Spectrometry (LC/MS, LC/MS2) using a Waters Acquity UPLC and a Thermo-Finnigan LTQ mass spectrometer, which consists of an electrospray ionization (ESI) source and linear ion-trap (LIT) mass analyzer. The sample extract was split into two aliquots, dried, then reconstituted in acidic or basic LC-compatible solvents. One aliquot was analyzed using acidic positive ion optimized conditions and the other using basic negative ion optimized conditions in two independent injections using separate dedicated columns. […] Using the SLOPE function of Microsoft Excel 2003, the correlation between antibody production and relative concentration of the components was calculated, the results of which are presented in Table 1 below. The higher the positive slope, the higher the importance of a biochemical component in the cell culture. p-values, also calculated using MS Excel's correlation regression function, represent the significance of the values, with the lower the p-value (all between 0 and 1), the more significant the measured value.

[4] = component added at 1 × 10^−1 % w/v
[5] = component added at 1 × 10^−2 % w/v
[6] = component added at 1 × 10^−3 % w/v

SMILES | Specific IgG production after 11 days [1, 4] | Specific IgG production after 11 days [1, 5] | Specific IgG production after 11 days [1, 6] | Cell growth (area under curve) after 14 days [2, 4] | Cell growth (area under curve) after 14 days [2, 5] | Cell growth (area under curve) after 14 days [2, 6] | SLOPE (correlation of antibody production and relative concentration of cell culture medium component) [3]
OC1C(O)C(O)C(O)C(O)C1O [D-Chiro-inositol, D-chiro-inositol] | 60.22 | 93.05 | 102.40 | 64.24 | 51.22 | 50.18 | –
C[C@H](O)C(=O)[O-].[Na+] [Sodium-L-lactate, sodium-L-lactate] | 93.77 | – | – | 61.83 | – | – | –
COc1cc(C(=O)O)cc(OC)c1O [Syringic Acid, 4-hydroxy-3,5-dimethoxybenzoic acid] | 96.8 | 93.2 | 77.3 | 60.0 | 58.8 | 53.4 | –
Nc1ncnc2nc[nH]c12 [adenine] | – | 100.8 | 82.4 | – | – | – | –
O=C(O)CC[C@@H]1NC(=O)CNC1=O [cyclo(Gly-Glu)] | – | – | – | – | – | – | 1584.22
COc1cc(/C=C/C(=O)O)ccc1O [ferulic acid, (E)-3-(4-hydroxy-3-methoxy-phenyl)prop-2-enoic acid] | 60.5 | 86.3 | 124.2 | 66.3 | 51.3 | 49.7 | –
C[n+]1cccc(C(=O)[O-])c1 [trigonelline, 1-methylpyridinium-3-carboxylate] | 83.65 | 75.68 | – | – | – | – | –
CC(C)[C@H](N)C(=O)N[C@@H](CCC(=O)O)C(=O)O [valinylglutamate] (H-Val-Glu-OH) | – | – | – | – | – | – | 2064.16
